Measured values reported in ChEMBL document CHEMBL4431324, “Comparative Analysis of Binding Kinetics and Thermodynamics of Dipeptidyl Peptidase-4 Inhibitors and Their Relationship to Structure” (J Med Chem, 2016).

Experiments:
[1] = target: T1, Muscarinic acetylcholine receptor M2 (Homo sapiens, UniProt P08172); experiment: Inhibition of M2 receptor (unknown origin)
T1 sequence (P08172 whole entry): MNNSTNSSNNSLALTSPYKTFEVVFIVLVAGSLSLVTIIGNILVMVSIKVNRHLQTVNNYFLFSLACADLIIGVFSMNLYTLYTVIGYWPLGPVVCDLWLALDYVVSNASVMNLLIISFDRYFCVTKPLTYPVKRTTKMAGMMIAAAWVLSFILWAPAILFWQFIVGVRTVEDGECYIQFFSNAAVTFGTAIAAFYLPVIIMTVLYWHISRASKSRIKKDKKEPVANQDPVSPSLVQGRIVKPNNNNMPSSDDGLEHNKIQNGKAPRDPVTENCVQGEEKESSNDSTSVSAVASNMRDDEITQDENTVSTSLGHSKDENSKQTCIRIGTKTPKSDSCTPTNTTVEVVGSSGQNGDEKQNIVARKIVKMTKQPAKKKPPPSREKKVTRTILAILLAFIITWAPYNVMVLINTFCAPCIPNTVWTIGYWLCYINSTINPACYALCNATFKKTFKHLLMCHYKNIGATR

[2] = target: Muscarinic acetylcholine receptor M3 (Homo sapiens, UniProt P20309); experiment: Inhibition of M3 receptor (unknown origin)
Sequence of Muscarinic acetylcholine receptor M3 (P20309 whole entry): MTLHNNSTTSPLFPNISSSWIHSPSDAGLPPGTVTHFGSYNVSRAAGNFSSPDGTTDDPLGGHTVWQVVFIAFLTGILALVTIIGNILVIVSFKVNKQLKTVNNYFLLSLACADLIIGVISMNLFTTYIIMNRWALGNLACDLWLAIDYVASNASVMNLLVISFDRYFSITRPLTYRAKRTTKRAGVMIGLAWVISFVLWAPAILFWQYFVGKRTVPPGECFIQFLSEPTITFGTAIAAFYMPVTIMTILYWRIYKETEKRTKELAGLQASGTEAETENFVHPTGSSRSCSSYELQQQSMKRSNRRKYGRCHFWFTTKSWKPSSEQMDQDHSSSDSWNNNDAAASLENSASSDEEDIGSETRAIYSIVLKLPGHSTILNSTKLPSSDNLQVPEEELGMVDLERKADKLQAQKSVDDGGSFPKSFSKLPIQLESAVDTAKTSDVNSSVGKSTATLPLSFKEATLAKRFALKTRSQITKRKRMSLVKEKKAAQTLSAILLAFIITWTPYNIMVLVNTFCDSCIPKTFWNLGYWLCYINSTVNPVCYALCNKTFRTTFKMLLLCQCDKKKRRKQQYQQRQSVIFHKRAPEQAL

[3] = Lipophilicity, log D of the compound at pH 7.4; type: physicochemical; details: buffer
Dipeptidyl peptidase 4 [4] = target: T2, Dipeptidyl peptidase 4 (Homo sapiens, UniProt P27487)
T2 sequence (P27487 whole entry): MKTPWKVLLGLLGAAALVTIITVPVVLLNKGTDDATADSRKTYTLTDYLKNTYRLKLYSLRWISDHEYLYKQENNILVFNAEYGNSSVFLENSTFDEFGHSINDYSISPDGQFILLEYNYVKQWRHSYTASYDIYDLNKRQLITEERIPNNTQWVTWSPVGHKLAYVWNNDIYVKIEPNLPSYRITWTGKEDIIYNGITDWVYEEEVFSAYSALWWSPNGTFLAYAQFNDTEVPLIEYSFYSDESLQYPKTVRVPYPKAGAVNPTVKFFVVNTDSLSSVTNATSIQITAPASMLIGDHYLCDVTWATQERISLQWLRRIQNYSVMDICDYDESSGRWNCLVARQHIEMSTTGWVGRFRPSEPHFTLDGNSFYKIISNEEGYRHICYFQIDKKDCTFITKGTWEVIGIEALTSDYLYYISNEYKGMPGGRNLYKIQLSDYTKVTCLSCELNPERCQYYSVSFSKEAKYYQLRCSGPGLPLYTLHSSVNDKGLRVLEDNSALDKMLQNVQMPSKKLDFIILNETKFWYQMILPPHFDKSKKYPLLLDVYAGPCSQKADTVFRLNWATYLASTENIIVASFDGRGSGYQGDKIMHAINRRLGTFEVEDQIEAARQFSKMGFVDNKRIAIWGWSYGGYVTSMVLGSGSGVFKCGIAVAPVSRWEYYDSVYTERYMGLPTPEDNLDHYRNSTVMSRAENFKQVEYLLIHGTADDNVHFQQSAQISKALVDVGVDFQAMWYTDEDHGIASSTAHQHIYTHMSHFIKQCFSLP

Dipeptidyl peptidase 4 [5] = target: T2, Dipeptidyl peptidase 4; remark: listed apart in the source
Description: Binding affinity to human recombinant DPP4 (39 to 766 residues) by surface plasmon resonance analysis

[6] = Renal clearance in wild type mouse at 0.01 mg/kg, iv; type: ADME, organism-based; details: in vivo
[7] = Cmax in human plasma at 5 mg; type: ADME, cell-free; set-up: dose 5 mg
[8] = Renal clearance in DPP4 knockout mouse at 0.01 mg/kg, iv; type: ADME, organism-based; details: in vivo

Structure (SMILES): CC(C)=CCn1c(N2CCC[C@H](N)C2)nc2c1c(=O)n(CC(=O)c1ccccc1)c(=O)n2C
- IC50 [1]: 150 nM
- IC50 [2]: 150 nM
- logD [3]: 0 to 1.6

Structure (SMILES): Cn1c(=O)c2c(nc(N3CCCC(N)C3)n2Cc2ccccc2)n(C)c1=O (stereo unspecified)
- logD [3]: 0 to 1.6

Structure (SMILES): O=c1[nH]c(=O)c2c(nc(N3CCNCC3)n2Cc2ccccc2)[nH]1
- Kd (Dipeptidyl peptidase 4 [4]): 246 nM
- logD [3]: 0 to 1.6
- Kd (Dipeptidyl peptidase 4 [5]): 806 nM

Structure (SMILES): CC#CCn1c(N2CCC[C@@H](N)C2)nc2c1c(=O)n(Cc1nc(C)c3ccccc3n1)c(=O)n2C [LINAGLIPTIN]
- CL [6]: 2.7%
- Cmax [7]: 10 nM
- CL [8]: 24.2%
- logD [3]: 0 to 1.6
